Measured values: patent publication US12636275B2, “Pharmaceutical use of ketoamide-based compound” (Shanghai Institute of Materia Medica, Chinese Academy of …, priority 2020, dated 2026)

Biological target: T1, 2019-nCoV 3CL protease (Severe acute respiratory syndrome coronavirus 2, UniProt P0DTD1)
T1 construct: against 3CL protease of 2019 novel coronavirus (2019-nCoV 3CL^pro)
Experiment: Inhibitory activity against 3CL protease of 2019 novel coronavirus (FRET)
Type: biochemical
Details: FRET, 37° C., substrate 20 μM
Experimental: To determine the inhibitory activity of the compound against 3CL protease of 2019 novel coronavirus (2019-nCoV 3CL^pro): the enzyme level inhibitory activity of inhibitors against 3CL protease was determined by fluorescence resonance energy transfer (FRET) technology. In a 96-well plate, 27.5 μL of buffer (20 mM Tris, 100 mM NaCl, 1 mM EDTA, pH 7.4) was added to each well, 2.5 μL compounds ([…], respectively) and 5 μL […] (final concentration was 3 μM) were added at the same time. Incubated at 37° C. for 15 min. Then 15 μL fluorescent substrate diluted with buffer (final concentration was 20 μM) was added. The fluorescence parameters were determined by Ge n5 fluorescence spectrophotometer. The excitation wavelength and emission wavelength were 340 nm and 490 nm respectively, kept at 37° C., and the data were read after 10 min. A negative control was used, in which no compound was added to the control, and the rest was the same.

Question: How did the IC50 turn out when `O=C(CC[C@H](NC(=O)[C@H](Cc1ccccc1)NC(=O)c1cnc2ccccc2n1)C(=O)C(=O)NCc1ccccc1)NC1CCCCC1` [Example A239, N—((S)-1-(((S)-4-(benzyl)-3,4-dione-1-(cyclohexylamino)-2-yl)amino)-3-(phenyl)-1-oxopropan-2-yl)-quinoxaline-2-carboxamide] was run?
Answer: 3.8 µM

Question: With `Cc1ccc(CN(C)C(=O)C(=O)[C@H](C[C@@H]2CCCNC2=O)NC(=O)[C@H](CC2CCCCC2)NC(=O)c2cc3ccccc3o2)cc1` [Example A272, N—((S)-1-(((S)-4-(4-methylbenzylmethylamino)-3,4-dione-1-((S)-2-oxopiperidin-3-yl)but-2-yl)amino)-3-cyclohexyl-1-oxopropan-2-yl)-benzofuran-2-carboxamide] as the compound, how does the IC50 read?
Answer: 4.8 µM

Question: With `CC(C)C[C@H](NC(=O)c1cc2c(Cl)cc(Cl)cc2[nH]1)C(=O)N[C@@H](C[C@@H]1CCNC1=O)C(=O)C(=O)NC(C)(C)C` [Example A115] as the compound, how does the IC50 read?
Answer: 6.5 µM

Question: Which IC50 does the source give for `C[C@@H](NC(=O)C(=O)[C@H](C[C@@H]1CCNC1=O)NC(=O)[C@H](CC1CCCCC1)NC(=O)c1ccc2ccccc2n1)c1ccccc1` [Example A293] here?
Answer: 26.4 µM

Question: With `CC(C)(C)NC(=O)C(=O)[C@H](C[C@@H]1CCCNC1=O)NC(=O)[C@H](CC1CCCCC1)NC(=O)c1cc2ccccc2[nH]1` [Example A6, N—((S)-1-(((S)-4-(tert-butylamino)-3,4-dione-1-((S)-2-oxopiperidin-3-yl)but-2-yl)amino)-3-cyclohexyl-1-oxopropan-2-yl)-1H-indole-2-carboxamide] as the compound, how does the IC50 read?
Answer: 25.3 µM

Question: For `CC(C)(C)NC(=O)C(=O)[C@H](C[C@@H]1CCNC1=O)NC(=O)[C@H](Cc1ccccc1)NC(=O)c1cc2ccccc2o1` [Example A291, N—((S)-1-(((S)-4-(tert-butylamino)-3,4-dione-1-((S)-2-oxopyrrolidin-3-yl)but-2-yl)amino)-3-phenyl-1-oxopropan-2-yl)-benzofuran-2-carboxamide], which IC50 is on record?
Answer: 15.2 µM

Question: For `CC(C)NC(=O)CC[C@H](NC(=O)[C@H](CC1CCCCC1)NC(=O)c1cnc2ccccc2n1)C(=O)C(=O)NCc1ccccc1` [Example A236, N—((S)-1-(((S)-4-(benzyl)-3,4-dione-1-(isopropylamino)-2-yl)amino)-3-(cyclohexyl)-1-oxopropan-2-yl)-quinoxaline-2-carboxamide], which IC50 is on record?
Answer: 4.5 µM

Question: How did the IC50 turn out when `O=C(NCc1ccccc1)C(=O)[C@H](C[C@@H]1CCCNC1=O)NC(=O)[C@H](CC1CCCCC1)NC(=O)c1cc2c(F)c(F)ccc2[nH]1` [Example A269, N—((S)-1-(((S)-4-(benzylamino)-3,4-dione-1-((S)-2-oxopiperidin-3-yl)but-2-yl)amino)-3-cyclohexyl-1-oxopropan-2-yl)-4,5-indole-2-carboxamide] was run?
Answer: 8.8 µM

Question: Which IC50 does the source give for `O=C(NC1CCCCC1)C(=O)[C@H](C[C@@H]1CCCNC1=O)NC(=O)[C@H](Cc1ccccc1)NC(=O)c1cc2ccccc2o1` [Example A59] here?
Answer: 23.5 µM

Question: For `O=C(NCc1cc(F)cc(F)c1)C(=O)[C@H](C[C@@H]1CCCNC1=O)NC(=O)[C@H](CC1CCCCC1)NC(=O)c1cc2ccccc2o1` [Example A270, N—((S)-1-(((S)-4-(3,5-difluorobenzylamino)-3,4-dione-1-((S)-2-oxopiperidin-3-yl)but-2-yl)amino)-3-cyclohexyl-1-oxopropan-2-yl)-benzofuran-2-carboxamide], which IC50 is on record?
Answer: 7.6 µM

Question: `CC(C)NC(=O)CC[C@H](NC(=O)[C@H](Cc1ccccc1)NC(=O)c1cc2ccccc2[nH]1)C(=O)C(=O)NCC1CCCCC1` [Example A234] was tested. Which IC50 did it give?
Answer: 10.3 µM

Question: `CCOc1ccc2oc(C(=O)N[C@@H](CC3CCCCC3)C(=O)N[C@@H](C[C@@H]3CCCNC3=O)C(=O)C(=O)NCc3ccccc3)cc2c1` [Example A259, N—((S)-1-(((S)-4-(benzylamino)-3,4-dione-1-((S)-2-oxopiperidin-3-yl)but-2-yl)amino)-3-cyclohexyl-1-oxopropan-2-yl)-5-ethoxyl-benzofuran-2-carboxamide] was tested. Which IC50 did it give?
Answer: 9.5 µM

Question: `CC(C)NC(=O)CC[C@H](NC(=O)[C@H](Cc1ccccc1)NC(=O)c1cnc2ccccc2n1)C(=O)C(=O)NCc1ccccc1` [Example A238] was tested. Which IC50 did it give?
Answer: 4.8 µM
